Results on one molecule are retold here after patent US8691584B2, “Sperm processing methods” (priority 2003, dated 2014).

The structures appear in SMILES notation.

The test system of the series is Spermatozoa. Put plainly: Post-thaw sperm motility under phase contrast microscope (Cryopreservation Example I). In kind it is cell-based, Bovine. The following applies: Hoechst 33342 added to aliquots in TCA buffer, 20 min at 35° C. or 41° C., cryopreserved, thawed 37° C. 50 seconds; analysis of variance. How it is done: Bovine semen was collected, transported, and evaluated as described above. Two test tubes containing 5 ml each of TCA buffer (pH 7.3) were placed in one of two water baths for at least five minutes. One water bath was at a temperature of 35° C. and the other water bath was at 41° C. Spermatozoa at 24° C. were added to each tube so that the final concentration in each tube was 150×10^6 sperm/ml. The two tubes were each divided into two aliquots which were kept in respective water baths. After the sperm had equilibrated with the TCA buffer for five minutes, […] was added to one of 35° C. aliquots and one of the 41° C. aliquots. After addition of the Hoechst 33342, all four aliquots were incubated for 20 minutes in their respective water bath. After incubation, the test tubes were removed from the water baths and left at room temperature (about 25° C.) for five minutes. Then the contents of each test tube were diluted with a TCA extender containing 20% egg yolk and 6% glycerol (v/v) (pH 7.0) to a final concentration of 20×10^6 sperm/ml. The contents of each test tube were then used to fill a 0.5 ml artificial insemination straw. Each of the four straws was placed in a programmable freezer (an IceCube 1810CD freezer from Minitube of America, Wis.). […]

For `CCOc1ccc(-c2nc3ccc(-c4nc5ccc(N6CCN(C)CC6)cc5[nH]4)cc3[nH]2)cc1` [Hoechst 33342], the “effect on post-thaw sperm motility” value is listed as “no significant effect”.
